In brackets after ≈: the same amount, converted by molar mass. Like-named read-outs stand apart in the source and are kept apart here. Non-standard residues stand in square brackets, D forms with d. Residues, ends and D or L forms follow the SMILES beside them. No end group written: not given here. Hyp = O=C(O)[C@@H]1C[C@@H](O)CN1; Tle = CC(C)(C)[C@H](N)C(=O)O; Orn = NCCC[C@H](N)C(=O)O

The nature of data set [1]: in vitro. Particulars: mouse, 100% mouse serum.
For data set [2] the following is noted: 25% aqueous mouse serum, 37° C., 75 μg/mL peptide.
Data set [3] has as its system Escherichia coli DSM 10233.
Data set [4] relates to Pseudomonas aeruginosa DSM 3227.
The test system of data set [5] is Klebsiella pneumoniae DSM 681.
The conditions of data set [6]: mouse, serum.
The test system of data set [7] is E. coli BL21 A1. The class given is cell-based, Escherichia coli. The essentials: (§1)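 Broth microdilution in 1% TSB with twofold peptide series, final 128 μg/mL to 62.5 ng/mL, against 5×10^6 bacteria/mL stock suspension added 1:1. Incubated 20 h at 37 °C, growth read by absorbance at 595 nm; MIC is the lowest concentration with no growth, determined in triplicate.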

Data set [8] relates to M. luteus 10240. The experiment in a line: Growth inhibition assay (microdilution MIC). The class given is cell-based, Micrococcus luteus. The essentials: as §1
On the technique in general: Dilution methods test growth across graded concentrations, often in twofold steps.

The nature of data set [9]: Stability against bacterial proteases in E. coli lysate. The class given is in vitro ADME. Particulars: E. coli BL21 A1 lysate (bacterial proteases), pH 7.4; E. coli lysate with 0.5 mg/mL protein concentration; read-out: percentage printed under half-life >240 min (peptide remaining). The method in brief:
(§2)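 Peptide (0.15 μg/mL) incubated at 37° C. in E. coli BL21 A1 sonicated lysate in PBS pH 7.4, Bradford-adjusted to 1.5 or 0.5 mg/mL protein. Samples at 0–360 min TCA-precipitated and neutralized. Intact peptide and fragments quantified by HPLC, identified by MALDI-TOF-MS.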

In data set [10] the test system is bacterial proteases (E. coli BL21 A1 lysate). The data set is described as above. The class given is in vitro ADME. The settings on record: 37° C. The method in brief: as §2
Data set [11] is described as follows: in vitro. The settings on record: mouse, 25% aqueous mouse serum, Half-life in 25% mouse serum, 37° C., 75 μg/mL peptide.
Data set [12] concerns P. aeruginosa 39324.
In data set [13] the test system is P. vulgaris ATCC 6896. The settings on record: ATCC 6896.
Data set [14] relates to E. coli D31 J. Wilson. The settings on record: ¼ Muller-Hinton medium.
Data set [15] has as its system S. typhimurium ATCC 700408.
Data set [16] concerns P. mirabilis ATCC 7002. The settings on record: ATCC 7002.
Data set [17] deals with K. pneumoniae 012-3131.
For data set [18], the system named is S. saprophyticus 15305. The settings on record: 15305.
The nature of data set [19]: 25% aqueous mouse serum. Particulars: 37° C., up to 360 minutes.
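Throughout, for Half-life in 25% mouse serum: intact peptide left at successive time points measured by reversed-phase HPLC with an acetonitrile gradient in the supernatant after precipitation of serum proteins.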

As to `CC[C@H](C)[C@H](NC(=O)[C@@H]1C[C@@H](O)CN1C(=O)[C@H](CCCNC(=N)N)NC(=O)[C@@H]1CCCN1C(=O)[C@@H]1CCCN1C(=O)[C@H](CCCNC(=N)N)NC(=O)[C@@H]1CCCN1C(=O)[C@H](CCCNC(=N)N)NC(=O)[C@@H]1CCCN1C(=O)[C@H](CC(C)C)NC(=O)[C@H](Cc1ccc(O)cc1)NC(=O)[C@@H]1CCCN1C(=O)[C@@H]1CCCN1C(=O)[C@H](CCCCN)NC(=O)[C@H](CC(=O)O)NC(=O)[C@@H](N)C(C)C)C(=O)N[C@@H](Cc1ccc(O)cc1)C(=O)N[C@@H](CC(N)=O)C(=O)N[C@@H](CCCN)C(N)=O` [compound 63] (H-VDKPPYLPRPRPPR[Hyp]IYN[Orn]-NH2), the amount remaining (usually what is left of the initial amount, in per cent) at 8 h, 75 μg/mL in data set [1] amounted to 60%. Also, the “Half-life in 25% mouse serum” value in [2] is reported as over 360 min. Besides, in data set [3], the “MIC E. coli DSM 10233” value came out at 1 µg/mL (≈ 0.434 µM). Also, the “MIC P. aeruginosa DSM 3227” value in data set [4] fell in the range of 16 to 32 µg/mL. Moreover, the “MIC K. pneumoniae DSM 681” value in data set [5] stood at 2 µg/mL (≈ 0.868 µM). In addition, in [6], the half-life (as a rule, the time needed for the level to fall by half in the phase considered) is over 480 min. Further, in data set [7] (BL21, 20 h), the “MIC E. coli BL21 A1” value came out at 4 µg/mL (≈ 1.74 µM).
`CC(C)C[C@H](NC(=O)[C@H](Cc1ccc(O)cc1)NC(=O)[C@@H]1CCCN1C(=O)[C@@H]1CCCN1C(=O)[C@H](CCCCN)NC(=O)[C@H](CC(=O)O)NC(=O)[C@@H](N)C(C)C)C(=O)N1CCC[C@H]1C(=O)N[C@@H](CCCNC(=N)N)C(=O)N1CCC[C@H]1C(=O)N[C@@H](CCCNC(=N)N)C(=O)N1CCC[C@H]1C(=O)N1C[C@H](O)C[C@H]1C(=O)N[C@@H](CCCNC(=N)N)C(=O)N1C[C@H](O)C[C@H]1C(=O)N[C@H](C(=O)N[C@@H](Cc1ccc(O)cc1)C(=O)N[C@@H](CC(N)=O)C(=O)N[C@@H](CCCN)C(N)=O)C(C)(C)C` [compound 110] (H-VDKPPYLPRPRP[Hyp]R[Hyp][Tle]YN[Orn]-NH2): in [8] (10240, 20 h), the “MIC M. luteus 10240” value was found to be 16 µg/mL (≈ 6.89 µM). Also, the amount remaining at 8 h, 75 μg/mL in data set [1] was found to be 70%. Further, in data set [9], the amount remaining at 4 h, 0.15 μg/mL stood at 90%. In data set [10] (E. coli lysate with 0.5 mg/mL protein concentration), the “Half-life in E. coli lysate” value was over 240 min. In data set [6], this compound showed a half-life of over 480 min.
On to VDKPPYLPRPRPPRRIYNR-NH2 [SEQ ID NO. 18], for which the “MIC M. luteus 10240” value in data set [8] (1% TSB, 20 h at 37° C.) was 8 µg/mL. Besides, the half-life at 0.15 μg/mL in [10] (E. coli, E. coli BL21 A1 lysate, pH 7.4, E. coli lysate with 0.5 mg/mL protein concentration) came out at 60 min. In data set [11], this compound came in with a half-life at 75 μg/mL of 60 min. Moreover, the “MIC P. aeruginosa 39324” value in data set [12] amounted to 4 µg/mL. Further, the “MIC P. vulgaris ATCC 6896” value in data set [13] is 128 µg/mL. In [14], the “MIC E. coli D31 J. Wilson” value is 2 µg/mL. The “MIC S. typhimurium ATCC 700408” value in data set [15] was 0.25 µg/mL. Further, in [16], the “MIC P. mirabilis ATCC 7002” value was 128 µg/mL. In addition, the “MIC K. pneumoniae 012-3131” value in [17] turned out to be 4 µg/mL. In data set [18], the “MIC S. saprophyticus 15305” value amounted to 16 µg/mL. Also, the “MIC E. coli BL21 A1” value in data set [7] (1% TSB, 20 h at 37° C.) came to 4 µg/mL.
Take VDKPPYLPRPRPPRRIYNR-OH: in data set [19], the cleaved bond result is reported as “Asn18-arginine19, first_seen”.

The values are drawn from patent US8686113B2 (priority 2009, dated 2014).
